In ChEMBL document CHEMBL6109101, “Synthesis and bioactivity of cyclic peptide GG-8-6 analogues as anti-hepatocellular carcinoma agents” (Eur J Med Chem, 2025) one finds IC50 and Activity data, which are given here for 15 compounds.

The source made the active and inactive calls. The rule behind the calls is not given here.

Holding throughout (assay type): functional, cell-based
Experiment [1] deals with HCCLM3. Description: Cytotoxicity against human HCCLM3 cells assessed as inhibition of cell proliferation incubated for 48 hrs by MTT assay. To be noted: HCCLM3, 48 h. (In general: Tetrazolium assays rely on reduction of a dye to a coloured formazan, in cell work by metabolically active cells.)
The subject of experiment [2] is MHCC97H. Description: Cytotoxicity against human MHCC97H cells assessed as inhibition of cell proliferation incubated for 48 hrs by MTT assay.
For a further experiment, the system named is HepG2. Description: Cytotoxicity against human HepG2 cells assessed as inhibition of cell proliferation incubated for 48 hrs by MTT assay. To be noted: HepG2, 48 h.
In a further experiment the test system is Huh-7. Description: Cytotoxicity against human Huh-7 cells assessed as inhibition of cell proliferation incubated for 48 hrs by MTT assay. The following applies: Huh-7, 48 h.
For experiment [3], the system named is MHCC97H. Description: Cytotoxicity against human MHCC97H cells assessed as reduction in cell viability at 40 uM measured at 48 hrs by MTT assay.
The test system of experiment [4] is MHCC97H. Description: Cytotoxicity against human MHCC97H cells assessed as cell viability up to 40 uM by MTT assay. To be noted: time 12-48 hrs.
Experiment [5] relates to HCCLM3. Description: Cytotoxicity against human HCCLM3 cells assessed as cell viability up to 40 uM measured at 12 hrs by MTT assay.
The test system of experiment [6] is MHCC97H. As to the kind of experiment: Cytotoxicity against human MHCC97H cells assessed as reduction in cell viability up to 40 uM measured at 48 hrs by MTT assay.
The subject of experiment [7] is HCCLM3. Description: Cytotoxicity against human HCCLM3 cells assessed as reduction in cell viability at 40 uM measured after 48 hrs by MTT assay.
Experiment [8] deals with HCCLM3. Description: Cytotoxicity against human HCCLM3 cells assessed as cell viability incubated at 12 to 48 hrs hrs by MTT assay. To be noted: dose <= 40.0 µM, time 12-48 hrs.
Experiment [9] relates to HCCLM3. Description: Cytotoxicity against human HCCLM3 cells assessed as cell viability up to 40 uM measured at 24 to 48 hrs by MTT assay. The following applies: time 24-48 hrs.
The test system of experiment [10] is HCCLM3. Description: Cytotoxicity against human HCCLM3 cells assessed as cell viability up to 40 uM by MTT assay. To be noted: time 12-48 hrs.
The test system of experiment [11] is MHCC97H. Description: Cytotoxicity against human MHCC97H cells assessed as cell viability up to 40 uM measured at 24 to 48 hrs by MTT assay. To be noted: time 24-48 hrs.
Experiment [12] concerns HCCLM3. Description: Cytotoxicity against human HCCLM3 cells assessed as reduction in cell viability up to 40 uM measured at 48 hrs by MTT assay.
The subject of experiment [13] is HCCLM3. Description: Cytotoxicity against human HCCLM3 cells assessed as reduction in cell viability at 40 uM measured at 48 hrs by MTT assay.
Experiment [14] concerns MHCC97H. Description: Cytotoxicity against human MHCC97H cells assessed as cell viability up to 40 uM measured at 12 hrs by MTT assay.
Experiment [15] has as its system MHCC97H. As to the kind of experiment: Cytotoxicity against human MHCC97H cells assessed as reduction in cell viability at 40 uM measured after 48 hrs by MTT assay.
Experiment [16] has as its system MHCC97H. As to the kind of experiment: Cytotoxicity against human MHCC97H cells assessed as cell viability incubated at 12 to 48 hrs hrs by MTT assay. To be noted: dose <= 40.0 µM, time 12-48 hrs.

As to `CC(C)C[C@@H]1NC(=O)[C@H](CC(C)C)NC(=O)[C@@H](CCCCNC(=O)OC(C)(C)C)NC(=O)[C@@H]2CCCN2C(=O)[C@@H](CC(C)C)NC(=O)[C@H](Cc2ccccc2)NC(=O)[C@H](CC(C)C)NC(=O)[C@H](C(C)C)NC(=O)[C@H](CC(C)C)NC1=O`, the IC50 in the experiment with HCCLM3 [1] was 5.23 µM; in the experiment on MHCC97H [2] it was 3.64 µM; with HepG2 it was greater than 100 µM; in the experiment on Huh-7 it was greater than 100 µM.

As for `CC(C)C[C@@H]1NC(=O)[C@H](CC(C)C)NC(=O)[C@@H](CCCCNC(=O)OC(C)(C)C)NC(=O)[C@@H]2CCCN2C(=O)[C@@H](CC(C)C)NC(=O)[C@H](COC(C)(C)C)NC(=O)[C@H](CC(C)C)NC(=O)[C@H](C(C)C)NC(=O)[C@H](CC(C)C)NC1=O`, the IC50 with HCCLM3 [1] was 10.2 µM; in the experiment on MHCC97H [2] it was 10.2 µM; in the experiment on HepG2 it was greater than 100 µM; in the experiment with Huh-7, greater than 100 µM.

For the compound `CC[C@@H](C)[C@H]1NC(=O)[C@@H]2CCCN2C(=O)[C@@H](CC(C)C)NC(=O)[C@@H](Cc2ccccc2)NC(=O)[C@H](CC(C)C)NC(=O)[C@H](C(C)C)NC(=O)[C@H](CC(C)C)NC(=O)[C@H](CC(C)C)NC(=O)[C@H](CC(C)C)NC1=O`, the IC50 in the experiment with HCCLM3 [1], in the experiment on MHCC97H [2], in the experiment with HepG2 and in the experiment with Huh-7 was greater than 100 µM throughout.

In the case of `CC[C@@H](C)[C@H]1NC(=O)[C@@H]2CCCN2C(=O)[C@@H](CC(C)C)NC(=O)[C@@H](COC(C)(C)C)NC(=O)[C@H](CC(C)C)NC(=O)[C@H](C(C)C)NC(=O)[C@H](CC(C)C)NC(=O)[C@H](CC(C)C)NC(=O)[C@H](CC(C)C)NC1=O`, the IC50 in the experiment with HCCLM3 [1], in the experiment on MHCC97H [2], with HepG2 and in the experiment on Huh-7 was greater than 100 µM each time.

As to `CC[C@@H](C)[C@H]1NC(=O)[C@@H]2CCCN2C(=O)[C@@H](CC(C)C)NC(=O)[C@H](CCCCNC(=O)OC(C)(C)C)NC(=O)[C@@H](CC(C)C)NC(=O)[C@H](C(C)C)NC(=O)[C@H](CC(C)C)NC(=O)[C@H](CC(C)C)NC(=O)[C@H](CC(C)C)NC1=O`, the IC50 in the experiment with HCCLM3 [1], with MHCC97H [2], in the experiment with HepG2 and in the experiment on Huh-7 was greater than 100 µM in each case.

In the case of `CC[C@@H](C)[C@H]1NC(=O)[C@@H]2CCCN2C(=O)[C@@H](CC(C)C)NC(=O)[C@@H](Cc2ccc(OC(C)(C)C)cc2)NC(=O)[C@H](CC(C)C)NC(=O)[C@H](C(C)C)NC(=O)[C@H](CC(C)C)NC(=O)[C@H](CC(C)C)NC(=O)[C@H](CC(C)C)NC1=O`, the IC50 with HCCLM3 [1], with MHCC97H [2], in the experiment on HepG2 and in the experiment with Huh-7 was greater than 100 µM throughout.

Turning to `CC[C@@H](C)[C@H]1NC(=O)[C@@H]2CCCN2C(=O)[C@@H](CC(C)C)NC(=O)[C@@H]([C@@H](C)OC(C)(C)C)NC(=O)[C@H](CC(C)C)NC(=O)[C@H](C(C)C)NC(=O)[C@H](CC(C)C)NC(=O)[C@H](CC(C)C)NC(=O)[C@H](CC(C)C)NC1=O`, the IC50 in the experiment on HCCLM3 [1], with MHCC97H [2], with HepG2 and with Huh-7 was greater than 100 µM each time.

Turning to `CC(C)C[C@@H]1NC(=O)[C@H](CC(C)C)NC(=O)[C@@H](CCCCNC(=O)OC(C)(C)C)NC(=O)[C@@H]2CCCN2C(=O)[C@@H](CC(C)C)NC(=O)[C@H](Cc2ccc(OC(C)(C)C)cc2)NC(=O)[C@H](CC(C)C)NC(=O)[C@H](C(C)C)NC(=O)[C@H](CC(C)C)NC1=O`, the outcome in the experiment on MHCC97H [3], in the experiment on HCCLM3 [5], with MHCC97H [6], with HCCLM3 [7], with HCCLM3 [9] and in the experiment with MHCC97H [11] was Active. The outcome in the experiment with HCCLM3 [12], in the experiment on HCCLM3 [13], in the experiment with MHCC97H [14] and in the experiment on MHCC97H [15] was Active. Further, the Activity result was “Time-dependent-effect” in the experiment with MHCC97H [4], “Dose-dependent-effect” with HCCLM3 [8], “Time-dependent-effect” in the experiment with HCCLM3 [10] and “Dose-dependent-effect” with MHCC97H [16]. Moreover, the IC50 in the experiment with HCCLM3 [1] is 3.26 µM; in the experiment on MHCC97H [2], 3.51 µM; with HepG2, greater than 100 µM; in the experiment on Huh-7 it was greater than 100 µM.

As for `CC[C@@H](C)[C@H]1NC(=O)[C@@H]2CCCN2C(=O)[C@@H](CC(C)C)NC(=O)[C@H]([C@H](C)OC(C)(C)C)NC(=O)[C@@H](CC(C)C)NC(=O)[C@H](C(C)C)NC(=O)[C@H](CC(C)C)NC(=O)[C@H](CC(C)C)NC(=O)[C@H](CC(C)C)NC1=O`, the IC50 amounted to 4.19 µM in the experiment on HCCLM3 [1], 6.05 µM in the experiment on MHCC97H [2], 3.41 µM in the experiment with HepG2 and 3.41 µM in the experiment with Huh-7.

Turning to `CC[C@@H](C)[C@H]1NC(=O)[C@@H]2CCCN2C(=O)[C@@H](CC(C)C)NC(=O)[C@@H]([C@@H](C)OC(C)(C)C)NC(=O)[C@@H](CCCCNC(=O)OC(C)(C)C)NC(=O)[C@H](C(C)C)NC(=O)[C@H](CC(C)C)NC(=O)[C@H](CC(C)C)NC(=O)[C@H](CC(C)C)NC1=O`, the result in the experiment on MHCC97H [3], in the experiment with HCCLM3 [5], with MHCC97H [6], in the experiment with HCCLM3 [7], with HCCLM3 [9] and in the experiment with MHCC97H [11] was Active. In addition, the result in the experiment with HCCLM3 [12], in the experiment on HCCLM3 [13], in the experiment on MHCC97H [14] and in the experiment with MHCC97H [15] was Active. Besides, the Activity entry in the experiment with MHCC97H [4] was “Time-dependent-effect”; in the experiment with HCCLM3 [8], “Dose-dependent-effect”; in the experiment with HCCLM3 [10], “Time-dependent-effect”; with MHCC97H [16], “Dose-dependent-effect”. For the same compound, the half-inhibitory concentration (IC50) with HCCLM3 [1] was 6.57 µM; in the experiment on MHCC97H [2] it was 9.19 µM; in the experiment on HepG2 it was greater than 100 µM; in the experiment with Huh-7, greater than 100 µM.

Take `CC[C@@H](C)[C@H]1NC(=O)[C@@H]2CCCN2C(=O)[C@@H](CC(C)C)NC(=O)[C@H](COC(C)(C)C)NC(=O)[C@@H](CCCCNC(=O)OC(C)(C)C)NC(=O)[C@H](C(C)C)NC(=O)[C@H](CC(C)C)NC(=O)[C@H](CC(C)C)NC(=O)[C@H](CC(C)C)NC1=O`: the IC50 in the experiment with HCCLM3 [1] is 2.99 µM; with MHCC97H [2], 3.04 µM; in the experiment with HepG2, greater than 100 µM; in the experiment with Huh-7 it was greater than 100 µM.

In the case of `CC[C@@H](C)[C@H]1NC(=O)[C@@H]2CCCN2C(=O)[C@@H](CC(C)C)NC(=O)[C@H](C(C)C)NC(=O)[C@@H](CC(C)C)NC(=O)[C@H](C(C)C)NC(=O)[C@H](CC(C)C)NC(=O)[C@H](CC(C)C)NC(=O)[C@H](CC(C)C)NC1=O`, the IC50 in the experiment on HCCLM3 [1] came to 9.94 µM; in the experiment with MHCC97H [2] it was 8.18 µM; in the experiment on HepG2 it was 12.2 µM; with Huh-7, 12.2 µM.

On to `CC[C@@H](C)[C@H]1NC(=O)[C@@H]2CCCN2C(=O)[C@@H](CC(C)C)NC(=O)CNC(=O)[C@H](CC(C)C)NC(=O)[C@H](C(C)C)NC(=O)[C@H](CC(C)C)NC(=O)[C@H](CC(C)C)NC(=O)[C@H](CC(C)C)NC1=O`, for which the IC50 in the experiment with HCCLM3 [1], in the experiment on MHCC97H [2], in the experiment on HepG2 and in the experiment on Huh-7 was greater than 100 µM each time.

As to `CC[C@@H](C)[C@H]1NC(=O)[C@@H]2CCCN2C(=O)[C@@H](CC(C)C)NC(=O)[C@H](Cc2ccc(OC(C)(C)C)cc2)NC(=O)[C@@H](CC(C)C)NC(=O)[C@H](C(C)C)NC(=O)[C@H](CC(C)C)NC(=O)[C@H](CC(C)C)NC(=O)[C@H](CC(C)C)NC1=O`, the IC50 in the experiment with HCCLM3 [1] was 2.86 µM; in the experiment with MHCC97H [2] it was 4.86 µM; in the experiment with HepG2, 2.08 µM; with Huh-7 it was 2.08 µM.

With `CC(C)C[C@@H]1NC(=O)[C@H](CC(C)C)NC(=O)[C@@H](CCCCNC(=O)OC(C)(C)C)NC(=O)[C@@H]2CCCN2C(=O)[C@@H](CC(C)C)NC(=O)[C@H](C(C)C)NC(=O)[C@H](CC(C)C)NC(=O)[C@H](C(C)C)NC(=O)[C@H](CC(C)C)NC1=O`, the IC50 in the experiment with HCCLM3 [1] was 2.17 µM; in the experiment with MHCC97H [2] it was 2.7 µM; in the experiment with HepG2, greater than 100 µM; in the experiment with Huh-7, greater than 100 µM.

By IC50 is commonly meant the point on the concentration scale where inhibition reaches its midpoint.
